Measured values as given in PubChem BioAssay (NCI).
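Five concentrations, 48 hours, 96-well plates. Abbreviation: GI50, concentration required for 50% inhibition of growth. TGI marks complete inhibition of growth.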

What was measured:
Assay in all cases: growth of human tumour cells (NCI), 48 h
A549 NSCLC = system: A549 NSCLC
SNB-75 CNS = system: SNB-75 CNS
SF-295 CNS = system: SF-295 CNS
SK-MEL-2 melanoma = system: SK-MEL-2 melanoma
UACC-257 melanoma = system: UACC-257 melanoma
TK-10 renal = system: TK-10 renal
ACHN renal = system: ACHN renal
U251 CNS = system: U251 CNS
MDA-MB-231 breast = system: MDA-MB-231 breast
UACC-62 melanoma = system: UACC-62 melanoma
RPMI-8226 leukemia = system: RPMI-8226 leukemia
OVCAR-5 ovarian = system: OVCAR-5 ovarian
SK-MEL-28 melanoma = system: SK-MEL-28 melanoma
T-47D breast = system: T-47D breast
NCI-H226 lung = system: NCI-H226 lung
KM12 colon = system: KM12 colon
SK-OV-3 ovarian = system: SK-OV-3 ovarian
SW-620 colon = system: SW-620 colon
HOP-62 NSCLC = system: HOP-62 NSCLC
HCT-15 colon = system: HCT-15 colon
EKVX NSCLC = system: EKVX NSCLC
SN12C renal = system: SN12C renal
OVCAR-3 ovarian = system: OVCAR-3 ovarian
BT-549 breast = system: BT-549 breast
SR leukemia = system: SR leukemia
OVCAR-4 ovarian = system: OVCAR-4 ovarian
A498 renal = system: A498 renal
MCF7 breast = system: MCF7 breast
RXF 393 renal = system: RXF 393 renal
CCRF-CEM leukemia = system: CCRF-CEM leukemia
CAKI-1 renal = system: CAKI-1 renal
MOLT-4 leukemia = system: MOLT-4 leukemia
HCC-2998 colon = system: HCC-2998 colon
NCI-H522 lung = system: NCI-H522 lung
HS 578T breast = system: HS 578T breast
MDA-MB-435 = system: MDA-MB-435
HCT-116 colon = system: HCT-116 colon
DU-145 prostate = system: DU-145 prostate
NCI/ADR-RES ovarian = system: NCI/ADR-RES ovarian
HT29 colon = system: HT29 colon
OVCAR-8 ovarian = system: OVCAR-8 ovarian
HOP-92 NSCLC = system: HOP-92 NSCLC
SF-539 CNS = system: SF-539 CNS
786-0 renal = system: 786-0 renal
HL-60(TB) leukemia = system: HL-60(TB) leukemia
LOX IMVI melanoma = system: LOX IMVI melanoma
NCI-H23 lung = system: NCI-H23 lung
IGROV1 ovarian = system: IGROV1 ovarian
MALME-3M melanoma = system: MALME-3M melanoma
M14 melanoma = system: M14 melanoma
PC-3 prostate = system: PC-3 prostate
COLO 205 colon = system: COLO 205 colon
SF-268 CNS = system: SF-268 CNS
UO-31 renal = system: UO-31 renal
NCI-H460 lung = system: NCI-H460 lung
SNB-19 CNS = system: SNB-19 CNS
K-562 leukemia = system: K-562 leukemia
SK-MEL-5 melanoma = system: SK-MEL-5 melanoma

## CC/C(=C(/c1ccc(Cl)cc1)c1ccc(OCCCN(C)C)cc1)c1ccc(OC)cc1
A549 NSCLC
  GI50: 3.88 µM
  TGI: 10.7 µM
SNB-75 CNS
  GI50: 6.02 µM
  TGI: 12.3 µM
SF-295 CNS
  GI50: 0.918 µM
  TGI: 1.87 µM
SK-MEL-2 melanoma
  GI50: 8.01 µM
  TGI: 15.6 µM
UACC-257 melanoma
  GI50: 7.93 µM
  TGI: 15 µM
TK-10 renal
  GI50: 6.23 µM
  TGI: 13 µM
ACHN renal
  GI50: 5.61 µM
  TGI: 12.4 µM
U251 CNS
  GI50: 1.66 µM
  TGI: 5.4 µM
MDA-MB-231 breast
  GI50: 1.3 µM
  TGI: 3.29 µM
UACC-62 melanoma
  GI50: 1.14 µM
  TGI: 2.5 µM
RPMI-8226 leukemia
  GI50: 1.17 µM
  TGI: 2.54 µM
OVCAR-5 ovarian
  GI50: 6.54 µM
  TGI: 14.2 µM
SK-MEL-28 melanoma
  GI50: 1.33 µM
  TGI: 3.84 µM
T-47D breast
  GI50: 3.76 µM
  TGI: 12.1 µM
NCI-H226 lung
  GI50: 7.7 µM
  TGI: 18.3 µM
KM12 colon
  GI50: 2.55 µM
  TGI: 10.1 µM
SK-OV-3 ovarian
  GI50: 10.2 µM
  TGI: 17.5 µM
SW-620 colon
  GI50: 1.16 µM
  TGI: 2.96 µM
HOP-62 NSCLC
  GI50: 7.76 µM
  TGI: 15.7 µM
HCT-15 colon
  GI50: 1.44 µM
  TGI: 5.08 µM
EKVX NSCLC
  GI50: 5.76 µM
  TGI: 12.6 µM
SN12C renal
  GI50: 5.05 µM
  TGI: 11.8 µM
OVCAR-3 ovarian
  GI50: 3.27 µM
  TGI: 10.5 µM
BT-549 breast
  GI50: 1.13 µM
  TGI: 2.89 µM
SR leukemia
  GI50: 0.983 µM
  TGI: 2.27 µM
OVCAR-4 ovarian
  GI50: 5.25 µM
  TGI: 11.5 µM
A498 renal
  GI50: 5.5 µM
  TGI: 12.1 µM
MCF7 breast
  GI50: 1.05 µM
  TGI: 5.89 µM
RXF 393 renal
  GI50: 1.16 µM
  TGI: 3.45 µM
CCRF-CEM leukemia
  GI50: 1.79 µM
  TGI: 7.19 µM
CAKI-1 renal
  GI50: 5.55 µM
  TGI: 12.5 µM
MOLT-4 leukemia
  GI50: 1.05 µM
  TGI: 2.53 µM
HCC-2998 colon
  GI50: 8.74 µM
  TGI: 17.4 µM
NCI-H522 lung
  GI50: 6.56 µM
  TGI: 13.7 µM
HS 578T breast
  GI50: 7.08 µM
  TGI: 16.9 µM
MDA-MB-435
  GI50: 3.28 µM
  TGI: 9.69 µM
HCT-116 colon
  GI50: 0.86 µM
  TGI: 1.57 µM
DU-145 prostate
  GI50: 3.48 µM
  TGI: 10.1 µM
NCI/ADR-RES ovarian
  GI50: 7.27 µM
  TGI: 16.3 µM
HT29 colon
  GI50: 1.06 µM
  TGI: 2.42 µM
OVCAR-8 ovarian
  GI50: 8.05 µM
  TGI: 17.6 µM
HOP-92 NSCLC
  GI50: 0.829 µM
  TGI: 1.97 µM
SF-539 CNS
  GI50: 4.08 µM
  TGI: 11.6 µM
786-0 renal
  GI50: 0.771 µM
  TGI: 1.46 µM
HL-60(TB) leukemia
  GI50: 1.15 µM
  TGI: 2.84 µM
LOX IMVI melanoma
  GI50: 0.868 µM
  TGI: 1.64 µM
NCI-H23 lung
  GI50: 7.43 µM
  TGI: 15.1 µM
IGROV1 ovarian
  GI50: 3.09 µM
  TGI: 10.8 µM
MALME-3M melanoma
  GI50: 1.2 µM
  TGI: 2.67 µM
M14 melanoma
  GI50: 0.966 µM
  TGI: 1.92 µM
PC-3 prostate
  GI50: 1.12 µM
  TGI: 2.71 µM
COLO 205 colon
  GI50: 0.915 µM
  TGI: 1.77 µM
SF-268 CNS
  GI50: 7.6 µM
  TGI: 16.3 µM
UO-31 renal
  GI50: 5.3 µM
  TGI: 11.8 µM
NCI-H460 lung
  GI50: 1.1 µM
  TGI: 2.46 µM
SNB-19 CNS
  GI50: 1.88 µM
  TGI: 5.78 µM
K-562 leukemia
  GI50: 1.06 µM
  TGI: 2.57 µM

## C=CCOc1ccc2c(c1)CC[C@@H]1[C@@H]2CC[C@]2(C)C(=O)/C(=N/O)C[C@@H]12
A549 NSCLC
  GI50: 4.45 µM
  TGI: > 48.8 µM
SNB-75 CNS
  GI50: 0.335 µM
  TGI: 8.39 µM
SF-295 CNS
  GI50: 14.6 µM
  TGI: > 68.2 µM
SK-MEL-2 melanoma
  GI50: 3.08 µM
  TGI: 10.4 µM
UACC-257 melanoma
  GI50: 11.8 µM
  TGI: 59 µM
TK-10 renal
  GI50: 1.49 µM
  TGI: 13.3 µM
ACHN renal
  GI50: 2.58 µM
  TGI: > 37.2 µM
U251 CNS
  GI50: 9.8 µM
  TGI: > 51 µM
MDA-MB-231 breast
  GI50: 1.85 µM
  TGI: 5.09 µM
UACC-62 melanoma
  GI50: 14.6 µM
  TGI: 32.5 µM
RPMI-8226 leukemia
  GI50: 2.74 µM
  TGI: 9.35 µM
OVCAR-5 ovarian
  GI50: 4.18 µM
  TGI: > 45.4 µM
SK-MEL-28 melanoma
  GI50: > 46.5 µM
  TGI: > 75.1 µM
T-47D breast
  GI50: 2.64 µM
  TGI: > 40.4 µM
NCI-H226 lung
  GI50: 5.06 µM
  TGI: 21.7 µM
KM12 colon
  GI50: 3.27 µM
  TGI: 11.2 µM
SK-OV-3 ovarian
  GI50: 6.97 µM
  TGI: 20.3 µM
SW-620 colon
  GI50: 2.33 µM
  TGI: 12.2 µM
HOP-62 NSCLC
  GI50: 6.08 µM
  TGI: > 49.3 µM
HCT-15 colon
  GI50: 2.05 µM
  TGI: 7.06 µM
SN12C renal
  GI50: 4.01 µM
  TGI: > 44.2 µM
OVCAR-3 ovarian
  GI50: 7.06 µM
  TGI: 25.9 µM
BT-549 breast
  GI50: 2.71 µM
  TGI: 19.2 µM
SR leukemia
  GI50: 2.3 µM
  TGI: 7.84 µM
OVCAR-4 ovarian
  GI50: 2.17 µM
  TGI: 8.6 µM
A498 renal
  GI50: 1.97 µM
  TGI: 21.3 µM
MCF7 breast
  GI50: 2.72 µM
  TGI: 13.2 µM
SK-MEL-5 melanoma
  GI50: 11.6 µM
  TGI: 25.7 µM
RXF 393 renal
  GI50: 1.98 µM
  TGI: 11.8 µM
CCRF-CEM leukemia
  GI50: 2.51 µM
  TGI: 8.67 µM
CAKI-1 renal
  GI50: 1.9 µM
  TGI: > 100 µM
MOLT-4 leukemia
  GI50: 2.44 µM
  TGI: 6.92 µM
HCC-2998 colon
  GI50: 1.09 µM
  TGI: 3.06 µM
NCI-H522 lung
  GI50: 5.59 µM
  TGI: 17.4 µM
HS 578T breast
  GI50: 1.93 µM
  TGI: 11.4 µM
MDA-MB-435
  GI50: 3.27 µM
  TGI: 17.2 µM
HCT-116 colon
  GI50: 2.04 µM
  TGI: 6.82 µM
DU-145 prostate
  GI50: 3.1 µM
  TGI: 15.6 µM
NCI/ADR-RES ovarian
  GI50: 6.92 µM
  TGI: > 52 µM
HT29 colon
  GI50: 1.81 µM
  TGI: 4.68 µM
OVCAR-8 ovarian
  GI50: 9.45 µM
  TGI: > 60.2 µM
HOP-92 NSCLC
  GI50: 1.52 µM
  TGI: 5.98 µM
SF-539 CNS
  GI50: 15.8 µM
  TGI: > 50.1 µM
786-0 renal
  GI50: 4.77 µM
  TGI: 25.4 µM
HL-60(TB) leukemia
  GI50: 0.44 µM
  TGI: 6.25 µM
LOX IMVI melanoma
  GI50: 2.49 µM
  TGI: 8.08 µM
NCI-H23 lung
  GI50: 10.1 µM
  TGI: 52.8 µM
IGROV1 ovarian
  GI50: 3.42 µM
  TGI: 14.2 µM
MALME-3M melanoma
  GI50: 18 µM
  TGI: 44.4 µM
M14 melanoma
  GI50: 5.95 µM
  TGI: 27.8 µM
PC-3 prostate
  GI50: 3.6 µM
  TGI: 18.8 µM
COLO 205 colon
  GI50: 3.16 µM
  TGI: 12.6 µM
SF-268 CNS
  GI50: 3.71 µM
  TGI: > 41.9 µM
UO-31 renal
  GI50: 2.39 µM
  TGI: 39.6 µM
NCI-H460 lung
  GI50: 4.71 µM
  TGI: 22.1 µM
SNB-19 CNS
  GI50: 11.4 µM
  TGI: > 55.1 µM
K-562 leukemia
  GI50: 2.88 µM
  TGI: 8.61 µM
